Here are results for six compounds from patent US20240217953A1, “BICYCLIC SUBSTITUTED AROMATIC CARBOXYLIC ACID COMPOUNDS” (CHIA TAI TIANQING PHARMACEUTICAL GROUP CO., LTD., priority 2021, published 2024).

The structures appear in SMILES notation.

In series [1] the target is human complement Factor B protein (Homo sapiens, UniProt P00751). In words: Human complement Factor B protein binding determination (TR-FRET method). The note with it: biotinylated Factor B 25 nM, Cy5-labeled probe 75 nM, PBS pH 7.4, 2 h. The procedure:
To determine the binding activity of the test compounds to human complement Factor B protein by using TR-FRET method.
Drugs were added to phosphate buffered saline PBS (pH 7.4) starting at 10 μM with 4-fold dilution and 10 concentrations in total. […] Time-resolved fluorescence resonance energy transfer (TR-FRET) data was measured using 330 nm as the excitation wavelength and 665 nm as the emission wavelength.
Background: Time-resolved FRET reads energy transfer from a long-lived donor to a nearby acceptor.

Series [2] deals with complement alternative pathway in human serum. The series is described as follows: Inhibition of Wieslab complement alternative pathway activation (enzyme activity determination). The class given is biochemical. The note with it: human serum diluted 1:23, Wieslab alternative pathway kit, absorbance at 405 nm; read-out: IC50 for alternative pathway membrane attack complex (AP MAC). The procedure:
To determine the inhibitory activity of the test compounds against the complement alternative pathway in human serum by using a Wieslab complement system alternative pathway kit.
The serum was diluted with a diluent (1:23). Drugs were added to the diluted serum in 8 concentration gradients, with the highest concentration of 10 mM or 50 mM and 5-fold gradient dilution. The resulting mixture was incubated at room temperature for 15 min. The compound and the serum mixture were added to a 96-well plate (100 μL/well) provided in the kit and activated at 37° C. for 1 h. The mixture was washed three times with a washing buffer. The detection antibody (100 μL) provided in the kit was added and the mixture was incubated at room temperature for 30 min. The mixture was washed three times with a washing buffer. A substrate (100 μL) was added and the mixture was incubated at room temperature for 30 min. The absorbance at 405 nm was measured using a microplate reader.

Series [3] is described as follows: Pharmacokinetic study in rats. The class given is in vivo. The note with it: rat; male SD rats, oral intragastric administration, 10 mg/kg, plasma. As for the experimental part:
To determine the drug concentration in the plasma of the test animals (male SD rats) at different time points after oral intragastric administration of the compounds disclosed herein by an LC/MS/MS method. To investigate the pharmacokinetic performance of the compounds disclosed herein in rats and to evaluate the pharmacokinetic characteristics.
Healthy male rats weighing 200-300 g, 2 rats in each group.
The compound disclosed herein was formulated into a 1 mg/mL clear solution with an aqueous solution of 0.5% MC (4000 cP)/0.5% Tween 80. Rats, after fasting overnight, were subjected to oral intragastric administration at a dose of 10 mg/kg. Blood was collected before administration and 0.25, 0.5, 1, 2, 4, 7, and 24 h after the administration, placed in heparin anticoagulation tubes, and centrifuged at 7000 rpm (5204 g) at 4° C. The plasma was separated and stored at −80° C. Four hours after administration, feeding was resumed. LC/MS/MS method was used to determine the content of the test compound in the plasma of the rats after oral administration. The plasma samples were analyzed after pretreatment to precipitate proteins.

One may read the IC50 as the concentration at which inhibition is half-maximal. One may read the AUC(0-t) as the area under the concentration-time curve up to a stated or last time point. Read a high AUC(0-t) as more exposure. The Cmax is the highest concentration seen after dosing. By Tmax is commonly meant the time at which the peak concentration occurs. As usually defined, the half-life is the time needed for the level to fall by half in the phase considered. Higher therefore signals slow loss.

Sequence of human complement Factor B protein (P00751 26-764): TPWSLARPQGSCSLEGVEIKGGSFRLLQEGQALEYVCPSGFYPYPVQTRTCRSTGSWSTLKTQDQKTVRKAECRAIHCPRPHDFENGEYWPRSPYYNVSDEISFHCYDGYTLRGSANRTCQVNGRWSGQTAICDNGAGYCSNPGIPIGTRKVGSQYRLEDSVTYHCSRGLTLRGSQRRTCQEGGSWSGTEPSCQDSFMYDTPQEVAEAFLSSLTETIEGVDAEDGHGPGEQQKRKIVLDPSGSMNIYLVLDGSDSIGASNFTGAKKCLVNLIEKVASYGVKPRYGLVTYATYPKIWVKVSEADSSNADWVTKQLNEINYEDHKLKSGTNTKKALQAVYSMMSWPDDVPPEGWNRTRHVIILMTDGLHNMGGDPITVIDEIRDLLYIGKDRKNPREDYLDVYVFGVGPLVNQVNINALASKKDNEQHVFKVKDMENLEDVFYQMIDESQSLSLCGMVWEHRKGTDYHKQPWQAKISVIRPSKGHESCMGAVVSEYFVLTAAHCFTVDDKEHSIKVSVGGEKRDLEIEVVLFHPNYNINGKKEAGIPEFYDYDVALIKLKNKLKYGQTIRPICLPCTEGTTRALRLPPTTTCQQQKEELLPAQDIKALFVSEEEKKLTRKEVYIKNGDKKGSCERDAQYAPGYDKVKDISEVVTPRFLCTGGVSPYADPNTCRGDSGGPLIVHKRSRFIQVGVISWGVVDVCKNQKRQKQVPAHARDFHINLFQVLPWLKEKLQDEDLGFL

Turning to `COc1cc(C)c2[nH]ccc2c1CN1C2CCCC1(c1ccc(C(=O)O)cc1)CC2` (single isomer, unassigned) [Compound 7A], the IC50 in series [1] and in series [2] was less than 100 nM each time.
Turning to `CCOC1CC2CCC(c3ccc(C(=O)O)cn3)(C1)N2Cc1c(OC)cc(C)c2[nH]ccc12` (single isomer, unassigned) [Compound 9A], the half-maximal inhibitory concentration (IC50) in series [1] and in series [2] was less than 100 nM throughout.
For `COc1cc(C)c2[nH]ccc2c1CN1CCC2CC1(c1ccc(C(=O)O)cc1)CCN2CC(F)(F)F` (stereo not drawn) [Compound 2], in series [3], the AUC(0-t) came to 14.7 µM·h, the peak level (Cmax) was 3.25 µM, the Tmax worked out at 0.5 h and the half-life was 4.65 h. Moreover, the IC50 in series [2] was less than 100 nM.
As for `COc1cc(C)c2[nH]ccc2c1CN1C2CCC1(c1ccc(C(=O)O)cc1)CC(C)C2` (stereo not drawn) [Compound 12], the IC50 in series [1] is less than 100 nM.
Take `CCOC1CC2CCC(c3ccc(C(=O)O)nc3)(C1)N2Cc1c(OC)cc(C)c2[nH]ccc12` (stereo not drawn) [Compound 11]: the IC50 in series [1] was less than 100 nM.
In the case of `COc1cc(C)c2[nH]ccc2c1CN1CCC2CC1(c1ccc(C(=O)O)cc1)CCN2CC(F)F` (stereo not drawn) [Compound 3], in series [2], the IC50 was less than 100 nM.
